Reference: patent US9593144B2, “FPR1 antagonist derivatives and use thereof” (CHANG GUNG UNIVERSITY, priority 2014, dated 2017)
Where two headings read alike, the source gives them in different places. Square brackets hold non-standard residues; d marks the D form. Peptide text beside a SMILES is read from it. * marks the point of attachment. dPhe(4-NO2) = N[C@H](Cc1ccc([N+](=O)[O-])cc1)C(=O)O; Trp(5-OH) = N[C@@H](Cc1c[nH]c2ccc(O)cc12)C(=O)O; dPhe(4-Cl) = N[C@H](Cc1ccc(Cl)cc1)C(=O)O; Nicotinoyl = O=C(c1cccnc1)*; Bz = O=C(c1ccccc1)*

What was measured:
human neutrophils [1] = assay: cells; assay type: cell-based; conditions: for IC50: mean ± SEM
Method: Degranulation of azurophilic granules was determined by elastase release as described above. Experiments were performed using MeO-Suc-[…]-nitroanilide as the elastase substrate. […] Results are expressed as the percentage of elastase release in the drug-free control group, DMSO. Tables 5 and 6 explore whether there is an anti-inflamatory effect in the dipeptide derivatives. Because ferricytochrome c cannot penetrate cell membranes, it reacts with superoxide anion extracellularly. Also, there are absorptive reactions at 550 nm, and differences among the absorptive reactions can be used to evaluate the influence on the release of superoxide anion. The elastase is released by degranulation as the neutrophil is activated. Tables 5 and 6 use the substrate, MeO-Suc-[…]-nitroanilide, with the specificity for reacting with the elastase so as to evaluate the influence of the candidate compound on the elastase release. Blood was taken from healthy human donors (20-32 years old) by venipuncture, following a protocol approved by the Institutional Review Board at Chang Gung Memorial Hospital. Neutrophils were isolated by a standard method of dextran sedimentation prior to centrifugation in a Ficoll Hypaque gradient and the hypotonic lysis of erythrocytes. […] The degranulation of azurophilic granules was determined by elastase release as described above. Experiments were performed using MeO-Suc-[…]-nitroanilide as the elastase substrate. Briefly, after supplementation with MeO-Suc-[…]-nitroanilide ([…] neutrophils (6×10^5 ml^-1) were equilibrated at 37° C. for 2 min and incubated with drugs for 5 min. […] The results are expressed as the percentage of elastase release in the drug-free control group.

human neutrophils [2] = assay: cells; assay type: cell-based; conditions: for IC50: mean ± SEM; remark: listed apart in the source
From the text: Tables 5 and 6 explore whether there is an anti-inflamatory effect in the dipeptide derivatives. Because ferricytochrome c cannot penetrate cell membranes, it reacts with superoxide anion extracellularly. Also, there are absorptive reactions at 550 nm, and differences among the absorptive reactions can be used to evaluate the influence on the release of superoxide anion. The elastase is released by degranulation as the neutrophil is activated. Tables 5 and 6 use the substrate, MeO-Suc-Ala-Ala-Pro-Val-p-nitroanilide, with the specificity for reacting with the elastase so as to evaluate the influence of the candidate compound on the elastase release.
Blood was taken from healthy human donors (20-32 years old) by venipuncture, following a protocol approved by the Institutional Review Board at Chang Gung Memorial Hospital. Neutrophils were isolated by a standard method of dextran sedimentation prior to centrifugation in a Ficoll Hypaque gradient and the hypotonic lysis of erythrocytes.
The evaluation of O2.^− generation was based on the SOD-inhibitable reduction of ferricytochrome c. In brief, after supplementation with 0.5 mg ml^−1 ferricytochrome c and 1 mM Ca^2+, neutrophils were equilibrated at 37° C. for 2 min and incubated with drugs […].

[3] = fMLP/CB, n = 3, Table 1, read-out: Anti-inflammation NE release (IC50)
[4] = human neutrophils, fMLP/CB, n = 3, Table 1, read-out: Anti-inflammation O2•− generation (IC50)
[5] = fMLP/CB, n = 3, Table 2, read-out: Anti-inflammation NE release (IC50)
[6] = human neutrophils, fMLP/CB, n = 3, Table 2, read-out: Anti-inflammation O2•− generation (IC50)
[7] = fMLP/CB, n = 3, Table 3, read-out: Anti-inflammation NE release (IC50)
[8] = human neutrophils, fMLP/CB, n = 3, Table 3, read-out: Anti-inflammation O2•− generation (IC50)

## COC(=O)[C@@H](Cc1ccccc1)NC(=O)[C@H](Cc1c[nH]c2ccccc12)NC(=O)c1cccnc1 [Compound 15a, N—(N-nicotinoyl-L-tryptophanyl)-D-phenylalanine methyl esters] (Nicotinoyl-Trp-[dF]-OMe)
Human neutrophils [1]; [3]
  IC50: > 30 µM
Human neutrophils [2]; [4]
  IC50: 13.1 ± 0.5 µM

## COC(=O)[C@@H](Cc1ccc([N+](=O)[O-])cc1)NC(=O)[C@H](Cc1c[nH]c2ccccc12)NC(=O)c1ccccc1 [Compound 18a, N—(N-Benzoyl-L-tryptophanyl)-para-nitro-D-phenylalanine methyl esters] (Bz-Trp-[dPhe(4-NO2)]-OMe)
Human neutrophils [1]; [5]
  IC50: 11.2 ± 0.46 µM
Human neutrophils [2]; [6]
  IC50: 19 ± 2.7 µM

## CC(C)(C)C(=O)Oc1ccc(S(=O)(=O)Nc2ccccc2C(=O)NCC(=O)O)cc1 [Sivelestat, reference compound]
Human neutrophils [1]; Neutrophil, fMLP/CB, n = 3, Table 1, read-out: Anti-inflammation NE release (IC50)
  IC50: 0.046 ± 0.02 µM

## O=C(N[C@@H](Cc1c[nH]c2ccccc12)C(=O)N[C@@H](CO)Cc1cccc(O)c1)c1ccccc1 [Compound 12a, N—(N-Benzoyl-L-tryptophanyl)-5-hydroxy-D-phenylalaninol]
Human neutrophils [1]; Neutrophil, fMLP/CB, n = 3, Table 3, read-out: Anti-inflammation NE release (IC50)
  IC50: > 30 µM
Human neutrophils [2]; Neutrophil, human neutrophils, fMLP/CB, n = 3, Table 3, read-out: Anti-inflammation O2•− generation (IC50)
  IC50: > 30 µM

## C/C=C/C[C@@H](C)[C@@H](O)[C@H]1C(=O)N[C@@H](CC)C(=O)N(C)CC(=O)N(C)[C@@H](CC(C)C)C(=O)N[C@@H](C(C)C)C(=O)N(C)[C@@H](CC(C)C)C(=O)N[C@@H](C)C(=O)N[C@H](C)C(=O)N(C)[C@@H](CC(C)C)C(=O)N(C)[C@@H](CC(C)C)C(=O)N(C)[C@H](C(C)C)C(=O)N1C [CycH, Cyclosporin H, reference compound]
Human neutrophils [1]; WKYMVm/CB, n = 3, Table 4, read-out: WKYMVm/CB NE release (IC50)
  IC50: 0.17 ± 0.01 µM

## N#CCNC(=O)[C@@H](Cc1ccccc1)NC(=O)[C@H](Cc1c[nH]c2ccccc12)NC(=O)c1ccccc1 [Compound 27b, N—(N-benzoyl-L-tryptophanyl)-D-phenylalanine-glycine-nitriles]
Human neutrophils [1]; WKYMVm, n = 4 or 8, Table 6, read-out: Elastase release WKYMVm IC50
  IC50: 6.65 ± 0.23 µM
Human neutrophils [1]; inhibitory percentage under 10 μM, Table 6, listed as HCH 90-2-1
  Elastase release fMLF Inh %: 18.66 ± 0.7 %
Human neutrophils [1]; [7]
  IC50: 14.5 ± 2.87 µM
Human neutrophils [2]; inhibitory percentage under 10 μM, Table 5, listed as HCH 90-2-1
  Superoxide anion WKYMVm Inh %: 18.66 ± 0.7 %
Human neutrophils [2]; human neutrophils, fMLF, inhibitory percentage under 10 μM, Table 5
  Superoxide anion fMLF Inh %: 34.61 ± 4.1 %
Human neutrophils [2]; [8]
  IC50: 10.5 ± 4.23 µM

## COC(=O)[C@@H](Cc1ccccc1)NC(=O)[C@H](Cc1c[nH]c2ccccc12)NC(=O)c1cccnc1 [Compound 15b, N—(N-nicotinoyl-L-tryptophanyl)-D-phenylalanine methyl esters] (Nicotinoyl-Trp-[dF]-OMe)
Human neutrophils [1]; [3]
  IC50: > 30 µM
Human neutrophils [2]; [4]
  IC50: > 30 µM

## COC(=O)[C@@H](Cc1ccc(Cl)cc1)NC(=O)[C@H](Cc1c[nH]c2ccccc12)NC(=O)c1ccccc1 [Compound 21a, N—(N-Benzoyl-L-tryptophanyl)-para-chloro-D-phenylalanine methyl esters] (Bz-Trp-[dPhe(4-Cl)]-OMe)
Human neutrophils [1]; [5]
  IC50: 4.31 ± 0.52 µM
Human neutrophils [2]; [6]
  IC50: 4.41 ± 0.27 µM

## COC(=O)[C@@H](Cc1ccccc1)NC(=O)[C@H](Cc1c[nH]c2ccc(O)cc12)NC(=O)c1ccccc1 [Compound 11a, N—(N-Benzoyl-5-hydroxy-L-tryptophanyl)-D-phenylalanine methyl esters] (Bz-[Trp(5-OH)]-[dF]-OMe)
Human neutrophils [1]; [3]
  IC50: 9.11 ± 0.76 µM
Human neutrophils [2]; [4]
  IC50: 8.81 ± 1.22 µM

## COC(=O)[C@@H](Cc1ccc([N+](=O)[O-])cc1)NC(=O)[C@H](Cc1c[nH]c2ccccc12)NC(=O)c1ccccc1 [Compound 18b, N—(N-Benzoyl-L-tryptophanyl)-para-nitro-D-phenylalanine methyl esters] (Bz-Trp-[dPhe(4-NO2)]-OMe)
Human neutrophils [1]; [5]
  IC50: 15.4 ± 0.54 µM
Human neutrophils [2]; [6]
  IC50: 13.1 ± 0.4 µM

## N#CCNC(=O)[C@@H](Cc1ccccc1)NC(=O)[C@H](Cc1c[nH]c2ccccc12)NC(=O)c1ccccc1 [Compound 27a, N—(N-benzoyl-L-tryptophanyl)-D-phenylalanine-glycine-nitriles]
Human neutrophils [1]; WKYMVm, inhibitory percentage under 10 μM, Table 6
  Elastase release WKYMVm Inh %: 35.9 ± 0.8 %
Human neutrophils [1]; inhibitory percentage under 10 μM, Table 6, listed as HCH 90-2-2
  Elastase release fMLF Inh %: 28.79 ± 2.6 %
Human neutrophils [1]; [7]
  IC50: 4.69 ± 0.8 µM
Human neutrophils [2]; inhibitory percentage under 10 μM, Table 5, listed as HCH 90-2-2
  Superoxide anion WKYMVm Inh %: 28.79 ± 2.6 %
Human neutrophils [2]; human neutrophils, fMLF, n = 4 or 8, Table 5, read-out: Superoxide anion fMLF IC50
  IC50: 6.23 ± 1.05 µM
Human neutrophils [2]; [8]
  IC50: 4.23 ± 2.44 µM

## COC(=O)[C@@H](Cc1ccccc1)NC(=O)[C@H](Cc1c[nH]c2ccc(O)cc12)NC(=O)c1ccccc1 [Compound 11b, N—(N-Benzoyl-5-hydroxy-L-tryptophanyl)-D-phenylalanine methyl esters] (Bz-[Trp(5-OH)]-[dF]-OMe)
Human neutrophils [1]; [3]
  IC50: 22.1 ± 4.96 µM
Human neutrophils [2]; [4]
  IC50: 18.7 ± 4.02 µM
